We go through ten compounds from patent US9040570B2, “Compounds for anti-fungal treatment” (priority 2010, dated 2015).

The subject of test [1] is C. neoformans. Nature of the test: AK assay with C. neoformans (lysis). The test is classed as cell-based. An excerpt: The AK assay was designed to take advantage of the fact that dead yeast cells lose membrane integrity and leak intracellular enzymes and proteins into culture medium. Upon cell lysis, AK is released into the medium and is detected by a coupled enzyme reaction in which AK converts 2 molecules of ADP into ATP. The ATP and luciferin are used by luciferase and a luminescent signal is generated as a reporter of yeast cell lysis (FIG. 1). […] Additionally, traditional growth-based screening cannot differentiate between fungistatic and fungicidal molecules.
In order to determine whether the AK assay was applicable to C. neoformans, a set of molecules containing drugs was tested. […] Agents Chemother.

Test [2] has as its system C. neoformans. To be noted: cited from earlier work.
The conditions of test [3]: other laboratories (Vu and Gelli); cited from earlier work.
The test system of test [4] is C. neoformans. To be noted: reported by Vu and Gelli; cited from earlier work.
The test system of test [5] is S. cerevisiae. The test can be described thus: adenylate kinase (AK) assay with S. cerevisiae (yeast cell lysis). The test is classed as cell-based. To be noted: for AK assay result (fungilytic activity): screen of Prestwick Library. The method, then: A high throughput assay that detects molecules that cause yeast cell lysis was recently developed as a new method for anti-fungal drug discovery (Krysan and DiDone, J. Biomol. Screen 13:657-64 (2008)). The adenylate kinase (AK) assay has three important features that make it a very useful tool for the identification of fungicidal anti-cryptococcal molecules: it is specific for fungicidal molecules; it is cell-based; and it is carried out with C. neoformans directly.
The AK assay was designed to take advantage of the fact that dead yeast cells lose membrane integrity and leak intracellular enzymes and proteins into culture medium. Upon cell lysis, AK is released into the medium and is detected by a coupled enzyme reaction in which AK converts 2 molecules of ADP into ATP. The ATP and luciferin are used by luciferase and a luminescent signal is generated as a reporter of yeast cell lysis (FIG. 1). The AK assay is specific for molecules that are fungicidal and is more sensitive than traditional growth-based antifungal screening assays. Additionally, traditional growth-based screening cannot differentiate between fungistatic and fungicidal molecules.
As part of the validation studies, a library of 1200 previously marketed drugs (Prestwick Library) was screened using the AK assay with S. cerevisiae (Krysan and DiDone, J. Biomol. Screen 13:657-64 (2008)). The library contained 15 clinically used antifungal drugs, of which 9 scored positive as fungilytic. […] In addition to molecules with known antifungal activity, fungilytic activity was identified in 10 drugs for which no antifungal activity had been reported previously (FIG. 3B). Subsequently, the antifungal activity of two drugs, astemizole and suloctidil was confirmed by other laboratories (Vu and Gelli, Med. Mycol. 1-9 (2009)). Thus, the AK assay is a sensitive reporter of antifungal activity in the HTS setting.

A further test has as its system S. cerevisiae cells. The test can be described thus: growth assay / MIC with S. cerevisiae cells. The test is classed as cell-based. To be noted: Saccharomyces cerevisiae; this strain of S. cerevisiae cells; read-out: minimum inhibitory concentration (MIC).
The test system of test [6] is C. albicans. Nature of the test: follow-up lysis assay with C. albicans. The test is classed as cell-based.
Another test has as its system pathogenic yeast. Nature of the test: in vitro susceptibility testing of a range of pathogenic yeast, CLSI standardized methods. The test is classed as cell-based.
The subject of test [7] is C. neoformans. The test can be described thus: MIC against C. neoformans. To be noted: for MIC: Cryptococcus neoformans. The test is classed as cell-based. The method, then: (§1) To complete the characterization of the antifungal activity of triphenylethylene-based estrogen receptor antagonists, toremifene was also evaluated. […] The interaction of toremifene with FLC was also evaluated using checkerboard methods.

A further test deals with T1, calmodulin with Myo2p.
T1 construct: host or cells: Myo2-GFP came from crude lysates of yeast cells expressing it
The test can be described thus: pull down of Myo2-GFP by sepharose bead immobilized calmodulin from yeast cell lysates. To be noted: in vitro, crude yeast cell lysates. The test is classed as binding.

The next test has as its system Myo2-GFP. The test can be described thus: Myo2-GFP localization to bud neck/septum during mitosis. The test is classed as cell-based, yeast.
Test [8] deals with S. cerevisiae. The test can be described thus: chemical genetic analysis: growth of S. cerevisiae PKC1/CMD1 strains on tamoxifen plates. The test is classed as cell-based. The text has this:
Previously, the molecular target of tamoxifen and related compounds in yeast was unknown. […] Both of these proteins are essential in yeast.

Test [9] relates to C. albicans. The test can be described thus: mouse model of disseminated candidiasis, kidney fungal burden. The test is classed as in vivo. To be noted: mice, 7 day pre-treatment at 200 mg/kg, C. albicans tail vein injection, 48 hour kidney burden. As for the experimental part:
FIGS. 5A and 5B show in vitro and in vivo antifungal activity of TAM/CLM.
Mice were treated with either sham or tamoxifen for seven days prior to challenge with C. albicans by tail vein injection. […] The mice were treated for an additional two days, sacrificed, and kidney fungal burdens determined. Kidney fungal burden is a well-characterized quantitative endpoint that correlates with efficacy. […] These studies further support the potential utility of this class of molecules as antifungal agents.

The subject of test [10] is C. albicans. Nature of the test: MIC against C. albicans. The test is classed as cell-based. To be noted: Candida albicans. The method, then:
as §1

For test [11], the system named is C. neoformans. The test can be described thus: non-antibody mediated phagocytosis of C. neoformans by J774 cells. The test is classed as cell-based, murine. To be noted: absence of opsonization; subinhibitory toremifene 4 μg/ml overnight.
Method: C. neoformans JEC21 cells were treated overnight with DMSO or subinhibitory toremifene (4 μg/ml), washed, and exposed to J774 macrophage cells for 2 hours without antibody.

≈ marks a conversion by molar mass, not a printed value. Entries after “also recorded” stand apart in the source; their conditions may differ.

Consider `CCCCc1oc2ccccc2c1C(=O)c1cc(I)c(OCCN(CC)CC)c(I)c1` [amiodarone], for which the “AK release / lysis” value with C. neoformans [1] is “AK release was detected”.

Take `C[C@@H]1[C@H](O)[C@@H](C)/C=C/C=C/C=C/C=C/C=C/C=C/C=C/[C@H](O[C@@H]2O[C@H](C)[C@@H](O)[C@H](N)[C@@H]2O)C[C@@H]2O[C@](O)(C[C@@H](O)C[C@@H](O)[C@H](O)CC[C@@H](O)C[C@@H](O)CC(=O)O[C@H]1C)C[C@H](O)[C@H]2C(=O)O` [amphotericin B]: the “efficiency by which macrophages phagocytose C. neoformans” value with C. neoformans [2] (background statement) is “increase”.

Take `COc1ccc(CCN2CCC(Nc3nc4ccccc4n3Cc3ccc(F)cc3)CC2)cc1` [astemizole]: the “AK release / lysis” value with C. neoformans [1] is “caused lysis”. In addition, the antifungal activity result in [3] is “confirmed”. For the same compound, in the test on C. neoformans [4], the “fungicidal activity toward C. neoformans” value is listed as “fungicidal” and the “interaction with FLC” value is listed as “synergistic”.

As for `CC[C@H](C)C[C@H](C)CCCCCCCCC(=O)N[C@H]1C[C@@H](O)[C@@H](NCCN)NC(=O)[C@@H]2[C@@H](O)CCN2C(=O)[C@H]([C@H](O)CCN)NC(=O)[C@H]([C@H](O)[C@@H](O)c2ccc(O)cc2)NC(=O)[C@@H]2C[C@@H](O)CN2C(=O)[C@H]([C@@H](C)O)NC1=O` [caspofungin], the “concentration inducing AK release relative to concentration causing detectable change in growth rate” value in the test with S. cerevisiae [5] (fold below) is recorded as approximately 10 fold. In addition, the “AK release / lysis” value with C. neoformans [1] was “not”. The MIC in the test on S. cerevisiae cells is 0.062 µg/mL (≈ 0.0567 µM).

Turning to `CCN(CC)CCOc1ccc(C(=C(Cl)c2ccccc2)c2ccccc2)cc1` [clomiphene], the lysis result in the test on C. albicans [6] was “cause lysis”. In the test with S. cerevisiae [5], the “AK assay result (fungilytic activity)” value is recorded as “highly fungilytic”. In addition, in the test with pathogenic yeast, the “activity relative to tamoxifen” value is “consistently less active”. In addition, in the test with C. neoformans [1], the “AK release / lysis” value is “cause lysis”. In addition, the MIC in the test on C. neoformans [7] was 64 µg/mL.

With `OC(Cn1cncn1)(Cn1cncn1)c1ccc(F)cc1F` [fluconazole], the increase of phagocytosis in the test on C. neoformans [2] (Nosanchuk et al.) was 2 fold. Further, in the test with S. cerevisiae [5], the “AK assay result (fungilytic activity)” value was “negative; also recorded: not positive”. The MIC in the test with C. neoformans [7] came out at 4 µg/mL.

For `COC1=CC(=O)C[C@@H](C)[C@]12Oc1c(Cl)c(OC)cc(OC)c1C2=O` [griseofulvin], in the test with S. cerevisiae [5], the “AK assay result (fungilytic activity)” value was “negative; also recorded: not positive”.

For `CCCCCCCCNC(C)C(O)c1ccc(SC(C)C)cc1` (centres unmarked) [suloctidil], the antifungal activity entry in test [3] is “confirmed”.

For the compound `CC/C(=C(\c1ccccc1)c1ccc(OCCN(C)C)cc1)c1ccccc1` [tamoxifen], in the test with C. albicans [6], the lysis entry is “cause lysis”. Moreover, the “AK assay result (fungilytic activity)” value with S. cerevisiae [5] is recorded as “highly fungilytic”. Also, the “ability of immobilized calmodulin to pull down Myo2-GFP” value with calmodulin with Myo2p is reported as “interferes”. Besides, the “Myo2-GFP localizing to the bud neck/septum region” value in the test with Myo2-GFP was “prevented”. For the same compound, the “sensitivity of strains with hypofunctional alleles of CMD1” value in the test with S. cerevisiae [8] (S. cerevisiae cmd1 mutants) is reported as “hypersensitive”. In the test on S. cerevisiae [8] (wild type S. cerevisiae overexpressing CMD1), the “effect of CMD1 overexpression on growth on tamoxifen plates” value was “suppressed toxicity”. For the same compound, the “effect of PKC1 overexpression on growth on tamoxifen plates” value in the test with S. cerevisiae [8] (wild type S. cerevisiae overexpressing PKC1) is recorded as “exacerbated its effects”. The “lowering of kidney fungal burden” value in the test on C. albicans [9] was determined as 1.5 log10. Further, the MIC was determined as 64 µg/mL with C. neoformans [7] and 32 µg/mL with C. albicans [10].

For the compound `CN(C)CCOc1ccc(/C(=C(/CCCl)c2ccccc2)c2ccccc2)cc1` [toremifene], in the test with C. neoformans [11], the “increase of phagocytosis of C. neoformans by J774 cells” value was found to be 2 fold. The “increase in AK release” value in the test on C. neoformans [1] (at 4 μg/mL) is 12 fold. Also, in the test on C. neoformans [7], the “MIC lower than either tamoxifen or clomiphene” value was determined as 16 fold, the “increase of MIC at 30° C. relative to 37° C.” value amounted to 2 fold and the MIC stood at 4 µg/mL. For the same compound, the MIC in the test with C. albicans [10] was 32 µg/mL.
